# Experimental data: US20240182491A1, “SUBSTITUTED FUSED BICYCLIC MACROCYCLIC COMPOUNDS AND RELATED METHODS OF TREATMENT” (Alkermes, Inc., priority 2021, published 2024)
# Target: T1, human orexin-2 receptor (OX2R) (Homo sapiens, UniProt O43614)
# T1 construct: expressed in transfected cells
# T1 sequence (O43614 1-444): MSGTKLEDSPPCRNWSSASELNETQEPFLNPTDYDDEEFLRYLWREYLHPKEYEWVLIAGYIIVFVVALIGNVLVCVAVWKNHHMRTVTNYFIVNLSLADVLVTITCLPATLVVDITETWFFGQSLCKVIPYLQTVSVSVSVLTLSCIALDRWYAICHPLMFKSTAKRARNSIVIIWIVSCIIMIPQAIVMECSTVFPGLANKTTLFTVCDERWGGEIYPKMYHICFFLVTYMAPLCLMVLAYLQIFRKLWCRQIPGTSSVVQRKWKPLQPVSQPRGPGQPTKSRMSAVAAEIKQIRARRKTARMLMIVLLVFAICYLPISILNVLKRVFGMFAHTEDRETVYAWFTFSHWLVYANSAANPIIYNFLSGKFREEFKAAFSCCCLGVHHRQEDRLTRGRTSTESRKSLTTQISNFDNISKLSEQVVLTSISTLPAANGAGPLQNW
# Experiment: Human OX2R IP1 assay
# Format: cell-based
# Conditions: T-Rex CHO cells stably overexpressing human OX2R; inositol monophosphate (IP1) accumulation, 1 hr at 37 degrees C; mean EC50
# Experimental: T-Rex CHO cells stably overexpressing the human orexin-2 receptor (OX2R) were induced overnight with 1 μg/mL of doxycycline in a T225 flask. 24 hours post induction, cells were lifted with accutase and plated into a 384-well proxy plate at 30,000 cells/well. Cells were then treated with different test compounds in 1× stimulation buffer containing 10 mM Hepes, 1 mM CaCl2), 0.5 mM MgCl2, 4.2 mM KCl, 146 mM NaCl, 5.5 mM glucose, and 50 mM LiCl, pH 7.4, for 1 hr at 37 degrees C. Following incubation, the reaction was terminated by the addition of detection mix, which is composed of IP1-d2 and anti-IP1-cryptate diluted in lysis buffer as well as 1× stimulation buffer. The plates were allowed to incubate for 1 hour at room temperature and were then read in the EnVision® multimode plate reader, measuring inositol phosphate levels.
# Cisbio IP1 is a cell-based functional assay quantifying the accumulation of inositol monophosphate (IP), a metabolite released as a result of orexin 2 receptor activation through the phospholipase C-Gq signaling pathway. This is a competitive immunoassay in which the IP1 produced by the cells upon receptor activation competes with the IP1 analog coupled to the d2 fluorophore (acceptor) for binding to an anti-IP1 monoclonal antibody labeled with Eu cryptate (donor). The measured HTRF-FRET based signal is inversely proportional to the IP1 concentration produced.
# The EC50 values reported in Table 2 were obtained according to the human OX2R IP1 assay described above. Data are the mean EC50 values ±S.E.M.
row,EC50 [nM],SMILES
1,100 to 1000,O=C1COc2cc3[nH]ncc3cc2C2CCC(CC2)OCC2[C@@H](NS(=O)(=O)C(F)(F)F)CCN12 (stereo partly drawn) [Compound 5]
2,100 to 1000,CS(=O)(=O)N[C@H]1CCN2C(=O)COc3cc4[nH]ncc4cc3[C@H]3CC[C@H](CC3)OC[C@@H]12 [Compound 6]
3,< 100,CS(=O)(=O)N[C@H]1CCCN2C(=O)COc3cc4[nH]ncc4cc3[C@H]3CC[C@H](CC3)OC[C@@H]12 [Compound 10]
